This is an account of results in ChEMBL document CHEMBL1201862, “PubChem BioAssay data set” (2004).

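A five-concentration, 48-hour dose response in 96-well plates underlies each endpoint, interpolated linearly between surrounding concentrations. GI50: concentration for 50% inhibition of growth.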 Activity calls are given as the source filed them. No stated cut-off is given here; in the data, active = GI50 up to about 1.1 µM and inactive = higher.

Among the test systems are EKVX; A498; OVCAR-5; OVCAR-8; CCRF-CEM; KM12; HCT-15; HCC 2998; U-251; SK-MEL-28; NCI-H522; UACC-62; SW-620; K562; HL-60; HOP-92.
Assay in all cases: DTP human tumour cell line panel, 48 h

By GI50 is commonly meant the concentration giving 50% growth inhibition.

Regarding `COC(=O)CCC1CCc2c(OC)ccc(OC)c2C1=O` (stereo not drawn), the GI50 was > 100 µM (inactive) in the assay with EKVX; > 10 µM (inactive) with A498; > 100 µM (inactive) in the assay on OVCAR-5; > 100 µM (inactive) with OVCAR-8; > 100 µM (inactive) in the assay on CCRF-CEM; > 100 µM (inactive) in the assay on KM12. The GI50 with HCT-15 was over 100 µM; with HCC 2998 it was > 100 µM (inactive); with U-251 it was > 100 µM (inactive); with SK-MEL-28 it was > 100 µM (inactive); with NCI-H522, > 100 µM (inactive); in the assay on UACC-62, > 100 µM (inactive). For the same molecule, the GI50 in the assay with SW-620, in the assay on K562 and with HL-60 was > 100 µM (inactive) in each case.
Turning to `CSC1CC2C(CC1(C)O)C2(C)C` (stereo not drawn), the GI50 with A498 was > 100 µM (inactive); in the assay with OVCAR-5, > 100 µM (inactive); in the assay on OVCAR-8, > 100 µM (inactive); with KM12, > 100 µM (inactive); in the assay on HCT-15, over 100 µM; with HCC 2998, > 100 µM (inactive). For the same molecule, the GI50 in the assay with U-251, with SK-MEL-28, in the assay on UACC-62 and in the assay on SW-620 was > 100 µM (inactive) throughout.
For the molecule `Cc1nc2ccccc2c(=O)n1NC(=S)Nc1cccc(Cl)c1`, the GI50 in the assay on A498, in the assay with OVCAR-5, with HOP-92, in the assay with OVCAR-8, in the assay on CCRF-CEM and with KM12 was > 100 µM (inactive) each time. Further, the GI50 is over 100 µM in the assay on HCT-15; > 100 µM (inactive) with U-251; > 100 µM (inactive) with SK-MEL-28; 33.7 µM (inactive) in the assay on NCI-H522; > 100 µM (inactive) in the assay on UACC-62; > 100 µM (inactive) with SW-620. Moreover, the GI50 with K562 and in the assay with HL-60 was > 100 µM (inactive) in each case.
With `[N-]=[N+]=NC1C2CC3CC(C2)CC1C3` (stereo not drawn), the GI50 in the assay with EKVX, in the assay on A498, in the assay with OVCAR-5, in the assay with HOP-92, in the assay with OVCAR-8 and in the assay with CCRF-CEM was > 100 µM (inactive) each time. Also, the GI50 in the assay on KM12, in the assay with HCC 2998, with U-251, in the assay with SK-MEL-28, in the assay with NCI-H522 and in the assay on UACC-62 was > 100 µM (inactive) each time. Besides, the GI50 in the assay on SW-620 and in the assay with K562 was > 100 µM (inactive) throughout.
On to `O=C(Nc1ccc(S(=O)(=O)N[C@@H](C(=O)O)c2ccccc2)cc1)c1ccc(F)cc1`, for which the GI50 in the assay with EKVX, in the assay with A498, in the assay on OVCAR-5, in the assay with HOP-92, in the assay on OVCAR-8 and in the assay on CCRF-CEM was > 100 µM (inactive) throughout. In addition, the GI50 in the assay with KM12 is > 100 µM (inactive); in the assay on HCT-15, over 100 µM; with HCC 2998, > 100 µM (inactive); in the assay on U-251, > 100 µM (inactive); with SK-MEL-28, > 100 µM (inactive); with NCI-H522, > 100 µM (inactive). The GI50 in the assay on UACC-62, with SW-620 and in the assay with K562 was > 100 µM (inactive) in each case.
Regarding `COc1cc([C@@H]2c3cc4c(cc3[C@@H](NC(=O)c3cccc([N+](=O)[O-])c3)C3COC(=O)[C@@H]32)OCO4)cc(OC)c1O` (stereo partly drawn), the GI50 in the assay on EKVX was 1.25 µM (inactive); in the assay with OVCAR-5 it was 2.23 µM (inactive); in the assay with HOP-92, 0.63 µM (active); in the assay with OVCAR-8 it was 0.721 µM (active); in the assay on CCRF-CEM it was 0.0376 µM (active); in the assay with KM12, 1.47 µM (inactive). Also, the GI50 in the assay with HCT-15 is 1.28 µM; in the assay with HCC 2998, 0.608 µM (active); in the assay on U-251 it was 0.166 µM (active); in the assay with SK-MEL-28, 3.27 µM (inactive); in the assay on UACC-62 it was 0.499 µM (active); with SW-620, 0.509 µM (active). In addition, the GI50 in the assay with K562 was 2.2 µM (inactive); in the assay with HL-60, 0.274 µM (active).
`O/N=C/c1cc2c(cc1Br)OCO2`: the GI50 with EKVX, in the assay on A498, in the assay on OVCAR-5, in the assay on OVCAR-8, with CCRF-CEM and in the assay with KM12 was > 100 µM (inactive) in each case. The GI50 is over 100 µM in the assay on HCT-15; > 100 µM (inactive) with HCC 2998; > 100 µM (inactive) with U-251; > 100 µM (inactive) with NCI-H522; > 100 µM (inactive) with UACC-62; > 100 µM (inactive) in the assay with SW-620. Besides, the GI50 with K562 and with HL-60 was > 100 µM (inactive) in each case.
On to `Cc1ccccc1C(C#N)/C(=N/NC(N)=S)C(=O)Nc1c(C)cccc1C` (stereo not drawn), for which the GI50 in the assay on EKVX, in the assay with OVCAR-5, with HOP-92, in the assay on OVCAR-8, with CCRF-CEM and in the assay with KM12 was > 100 µM (inactive) throughout. The GI50 was > 100 µM (inactive) with HCC 2998; > 100 µM (inactive) in the assay on U-251; > 100 µM (inactive) in the assay on SK-MEL-28; 33.4 µM (inactive) in the assay with UACC-62; > 100 µM (inactive) in the assay with SW-620; > 100 µM (inactive) in the assay with HL-60.
Take `Cc1cccc(C)c1NC(=O)C(=O)Cc1nc2ccccc2s1`: the GI50 in the assay on EKVX, in the assay with A498, with OVCAR-5, in the assay on HOP-92, in the assay with OVCAR-8 and with CCRF-CEM was > 100 µM (inactive) each time. Further, the GI50 with KM12 is > 100 µM (inactive); with HCT-15, over 100 µM; with HCC 2998, > 100 µM (inactive); in the assay with U-251 it was > 100 µM (inactive); in the assay with SK-MEL-28, > 100 µM (inactive); in the assay with NCI-H522 it was > 100 µM (inactive). The GI50 in the assay with UACC-62, with SW-620, in the assay with K562 and in the assay with HL-60 was > 100 µM (inactive) throughout.
As for `CC(c1ccccc1)N1CC(C)(c2ccccc2)N(O)C(c2ccccc2)C1C` (stereo not drawn), the GI50 in the assay with EKVX was 13.5 µM (inactive); with A498, 18 µM (inactive); in the assay with OVCAR-5 it was 16.9 µM (inactive); in the assay on HOP-92, 2.21 µM (inactive); in the assay with OVCAR-8 it was 9.91 µM (inactive); with CCRF-CEM, 5.66 µM (inactive). Moreover, the GI50 in the assay with KM12 was 8 µM (inactive); in the assay with HCC 2998 it was 11.2 µM (inactive); in the assay with U-251 it was 13.1 µM (inactive); in the assay on SK-MEL-28, 4.08 µM (inactive); in the assay with NCI-H522 it was 6.4 µM (inactive); in the assay on SW-620, 12.1 µM (inactive). The GI50 is 7.28 µM (inactive) in the assay on K562 and 3.52 µM (inactive) in the assay on HL-60.
Take `COC(=O)C12C3C4C1C1C2C3C41C(=O)OC(C)(C)C` (stereo not drawn): the GI50 with EKVX was > 100 µM (inactive); with A498, > 100 µM (inactive); in the assay on OVCAR-5, > 100 µM (inactive); in the assay on HOP-92 it was > 100 µM (inactive); with OVCAR-8 it was > 81.3 µM (inactive); in the assay on CCRF-CEM it was > 71.3 µM (inactive). Further, the GI50 in the assay with KM12 was > 100 µM (inactive); with HCT-15, over 100 µM; with U-251, > 100 µM (inactive); with SK-MEL-28, > 100 µM (inactive); in the assay with NCI-H522, > 100 µM (inactive); in the assay with UACC-62, > 100 µM (inactive). Also, the GI50 in the assay with SW-620 is > 36.2 µM (inactive); in the assay on K562 it was > 70.1 µM (inactive); with HL-60, > 53.8 µM (inactive).
As for `COC(=O)C(C(=O)C(=O)Nc1cccc(O)c1)c1nc2ccc(Cl)cc2nc1O` (stereo not drawn), the GI50 is 48.9 µM (inactive) with EKVX; > 100 µM (inactive) in the assay on A498; > 100 µM (inactive) in the assay with OVCAR-5; 59 µM (inactive) with HOP-92; > 100 µM (inactive) in the assay on OVCAR-8; > 100 µM (inactive) with CCRF-CEM. The GI50 in the assay on KM12 is > 100 µM (inactive); with HCT-15, over 100 µM; with HCC 2998 it was > 100 µM (inactive); with U-251 it was > 100 µM (inactive); in the assay with SK-MEL-28, > 100 µM (inactive); in the assay on UACC-62, > 100 µM (inactive). The GI50 in the assay on SW-620, with K562 and in the assay on HL-60 was > 100 µM (inactive) in each case.
Take `Cc1cc2c(=O)cc(-c3ccc(C(F)(F)F)cc3)oc2c(C(=O)O)c1C`: the GI50 is > 100 µM (inactive) in the assay on EKVX; > 100 µM (inactive) with OVCAR-5; > 100 µM (inactive) in the assay on OVCAR-8; > 100 µM (inactive) in the assay on CCRF-CEM; > 100 µM (inactive) in the assay with KM12; over 100 µM with HCT-15. Moreover, the GI50 with U-251, in the assay with SK-MEL-28, in the assay on NCI-H522, in the assay on UACC-62, in the assay with SW-620 and in the assay on K562 was > 100 µM (inactive) in each case.
`Oc1cc(-c2ccccn2)nc2ccc(Cl)cc12`: the GI50 in the assay with EKVX is 44 µM (inactive); with OVCAR-5, > 100 µM (inactive); in the assay on HOP-92 it was > 100 µM (inactive); in the assay with OVCAR-8, 44.2 µM (inactive); in the assay on CCRF-CEM, 36.5 µM (inactive); in the assay with KM12, 24 µM (inactive). For the same molecule, the GI50 in the assay on HCC 2998 is 58.9 µM (inactive); in the assay on SK-MEL-28, 34.8 µM (inactive); in the assay on NCI-H522, 7.35 µM (inactive); with UACC-62 it was 28.7 µM (inactive); with SW-620 it was 19.8 µM (inactive); with K562 it was 12.8 µM (inactive). Further, the GI50 in the assay on HL-60 is 10.9 µM (inactive).
